US20110207655A1, “CYCLIC DEPSIPEPTIDE COMPOUND AND USE THEREOF” (Astellas Pharma Inc., priority 2008, published 2011)
Starred links: 1 amine or outer side, 2 acyl side, 3 side chain; linkers in the order of their positions; H or OH if unused. Positions of bridges follow the written chain, without caps; N, C: chain ends. Non-standard residues stand in square brackets, D forms with d. Residues, ends and D or L forms follow the SMILES beside them. Leu(3R-O(AcLeu(3R-OH))) = CC(=O)N[C@H](C(=O)O[C@H](C(C)C)[C@H](N)C(=O)O)[C@H](O)C(C)C; X1 = CO[C@H](C)C(C(=O)[*:2])N(C)[*:1]; dPhLac = O=C(O)[C@H](O)Cc1ccccc1; NMeA = CN[C@@H](C)C(=O)O; NMeDha = C=C(NC)C(=O)O

Legend:
[1] = test system: tobacco smoke inhalation-induced airway inflammation; test: Action of nasal drop administration on the tobacco smoke inhalation-induced airway inflammation; type: in vivo, BALB/c male mice; conditions: mice, nasal drop 1, 10 and 100 μg/kg once a day; bronchoalveolar lavage cell count at Day 11
Description: BALB/c male mice (Charles River Laboratories Japan, Inc.) were used in experiments. Sodium pentobarbital (40 mg/kg) was administered intraperitoneally to the mice for anesthesia. During a period of time ranging from Day 0 to Day 10 (except for Days 5 and 6), the test compound (1, 10, and 100 μg/kg) were administered nasally to the mice once a day. The Vehicle group was similarly injected with physiological saline by nasal drop administration. There were 10 animals in each group. The mice were put into chambers at 1 hour after nasal drop administration, and using a tobacco smoke generator (SG-200, Sibata Scientific Technology Ltd.), the tobacco smoke was inhaled to a concentration in air up to 4% for 1 hour. After intraperitoneal administration of sodium pentobarbital (80 mg/kg) to the mice at Day 11, the mice were subject to blood removal to be euthanized. After respiratory arrest, the trachea was incised, bronchoalveolar lavage was performed with PBS(−) 0.5 mL×3 times, and the washing liquid was collected. The supernatant was removed by centrifugation, the cells were then resuspended in PBS(−), and for white blood cells (WBC), neutrophils (NEUT), lymphocytes (LYMPH), macrophages (MONO), and eosinophils (EO), the cell count was measured with a Multiple Parameter Automatic Hematology Analyzer (XT-2000i, Sysmex Corporation).

[2] = test system: methacholine-induced airway contraction; test: Inhibitory action of intratracheal administration on the methacholine-induced airway contraction; type: in vivo, SD male rats; conditions: rats; for airway contraction inhibitory rate: 1 hour before methacholine 30 μg/kg i.v., vs saline group
Description: SD male rats (Charles River Laboratories Japan, Inc.) were used in experiments. Urethane (1.2 g/kg) was administered intraperitoneally to the rats for anesthesia. Using a metal canula for intratracheal administration, test compounds (0.3, 1, and 3 μg/kg) or physiological saline was administered intratracheally (3 or 4 animals) at a volume of 0.5 mL/kg. Cannulation for intravenous administration was carried out in the external jugular vein of the rats. A tracheostomy cannula was inserted through an incision in the trachea and mechanical ventilation (10 mL/kg, 90 times/min) was carried out using a Breathing Analysis Computer System (flexiVent, SCIREQ Inc.). The mechanical ventilator circuit was connected with a pressure transducer (TP-400T, Nihon Kohden Corporation) and the change in airway pressure was measured. The airway pressure signal was amplified with a strain pressure amplifier (AP-601G, Nihon Kohden Corporation) and recorded on chart paper by a thermal pen recorder (WT-685G, Nihon Kohden Corporation, or LINEARCORDER F WR3701, Graphtec). The body temperature of the rats was maintained at 37° C. using a body temperature-maintaining device (BWT-100, Bio Research
Center). At 1 hour after intratracheal administration of the test compound, a solution of acetyl-β-methacholine chloride in physiological saline (30 μg/kg, acetylcholine β-methacholine chloride=manufactured by SIGMA Co.) was administered intravenously to induce the airway contraction response. The airway contraction inhibitory rate of the test compound was calculated by comparing the airway pressure increase rate (%) with one obtained by intratracheal administration of physiological saline, and ED50 values were determined.

C=C1C(=O)N[C@@H](C)C(=O)N(C)[C@@H](C)C(=O)N[C@@H]([C@H](OC(=O)[C@@H](NC(C)=O)[C@H](O)C(C)C)C(C)C)C(=O)N(C)C([C@@H](C)OC)C(=O)O[C@H](C)[C@H](NC(C)=O)C(=O)O[C@H](Cc2ccccc2)C(=O)N1C (stereo partly drawn) [Ref 1] (Ac-T[dPhLac][NMeDha]A[NMeA][Leu(3R-O(AcLeu(3R-OH)))][X1]; ester 1-C)
infiltration of eosinophils into the airway [1]: significantly inhibited | infiltration of lymphocytes into the airway [1]: significantly inhibited | infiltration of neutrophils into the airway [1]: significantly inhibited | ED50 ([2]; Rattus norvegicus, intratracheal, calculated from three points, read-out: ED50 value of inhibition of methacholine-induced airway contraction): 0.73 µg/kg | airway contraction inhibitory rate ([2]; intratracheal 0.3 μg/kg): 32% | airway contraction inhibitory rate ([2]; intratracheal 1 μg/kg): 45% | airway contraction inhibitory rate ([2]; intratracheal 3 μg/kg): 98%
